The source of these data is ChEMBL document CHEMBL5058564, “EUbOPEN Chemogenomics Library 2 (Incucyte)” (2022).

Format in all cases: toxicity, cell-based
One series concerns HEK-293T. The experiment in a line: Incucyte cell viability with HEK293T. To be noted: human, 10 µM, compound concentration 10 uM.
For the next series, the system named is Fibroblast. The experiment in a line: Incucyte cell viability with human fibroblast. To be noted: 10 µM, compound concentration 10 uM.
In the next series the test system is U2OS. Description: Incucyte cell viability with U2OS. To be noted: human, 10 µM, compound concentration 10 uM.
Setting [1] is: 6 h, replicate number 1, timepoint 6 hours.
The mark [2] stands for this setting: 6 h, replicate number 2, timepoint 6 hours.
Setting [3] is: 12 h, replicate number 1, timepoint 12 hours.
[4] abbreviates: 12 h, replicate number 2, timepoint 12 hours.
Setting [5] is: 18 h, replicate number 1, timepoint 18 hours.
Where [6] appears, read: 18 h, replicate number 2, timepoint 18 hours.
Setting [7] is: 24 h, replicate number 1, timepoint 24 hours.
The mark [8] stands for this setting: 24 h, replicate number 2, timepoint 24 hours.
Where [9] appears, read: 0 h, replicate number 1, timepoint 0 hours.
Setting [10] is: 0 h, replicate number 2, timepoint 0 hours.
Further: unitless GR value; below 1 slowed growth and below 0 cell loss.

Take `CN(C(=O)c1ccccc1)c1cc(N(C)c2ccc3c(c2)CCc2ccc(C(=O)NCCN4CCOCC4)cc2C3=O)ccc1F` [FM-743]: the “Growth Rate” value with HEK-293T (setting [1]) is given as -0.43; with HEK-293T (setting [2]), 0; in the series with HEK-293T (setting [3]), -0.34; in the series with HEK-293T (setting [4]) it was -0.27; in the series on HEK-293T (setting [5]), -0.33; with HEK-293T (setting [6]), -0.15. Besides, the “Growth Rate” value with HEK-293T (setting [7]) was -0.25; with HEK-293T (setting [8]) it was -0.11; in the series on Fibroblast (setting [9]), 0.51; in the series with Fibroblast (setting [10]), 0.69; in the series with Fibroblast (setting [1]), -0.57; with Fibroblast (setting [2]) it was -0.35. For the same compound, the “Growth Rate” value with Fibroblast (setting [3]) is -0.68; with Fibroblast (setting [4]) it was -0.23; in the series on Fibroblast (setting [5]), -0.66; in the series with Fibroblast (setting [6]), -0.08; in the series with Fibroblast (setting [7]) it was -0.58; in the series on Fibroblast (setting [8]), -0.28. The “Growth Rate” value is recorded as 0.89 in the series on U2OS (setting [9]); 0.49 in the series on U2OS (setting [10]); 0.79 in the series with U2OS (setting [2]); 0.72 in the series on U2OS (setting [4]); 0.81 in the series with U2OS (setting [5]); 0.66 in the series with U2OS (setting [6]). Moreover, the “Growth Rate” value in the series on U2OS (setting [7]) came to 0.74; with U2OS (setting [8]), 0.53.

As to `CC#C[C@@H](CC(=O)O)c1ccc(OCc2cccc(-c3ccc(C(F)(F)F)cc3)c2)cc1`, the “Growth Rate” value in the series with HEK-293T (setting [2]) was 0.55; in the series with HEK-293T (setting [4]), 0.95; in the series on HEK-293T (setting [5]) it was 0.65; with HEK-293T (setting [6]), 0.93; with HEK-293T (setting [7]) it was 0.68; in the series with Fibroblast (setting [1]), 0.66. Moreover, the “Growth Rate” value in the series on Fibroblast (setting [2]) is listed as -0.08; with Fibroblast (setting [4]), 0.23; in the series on Fibroblast (setting [6]), 0.02; in the series with Fibroblast (setting [7]), 0.66; in the series on Fibroblast (setting [8]), 0.31; in the series on U2OS (setting [9]) it was 0.35. Also, the “Growth Rate” value in the series on U2OS (setting [2]) was 0.69; with U2OS (setting [4]), 0.96; with U2OS (setting [5]) it was 0.85; in the series with U2OS (setting [6]) it was 0.96.

Consider `N[C@@H]1c2cccnc2[C@H](OC(=O)N2CCC(n3c(=O)[nH]c4ncccc43)CC2)CC[C@H]1c1cccc(F)c1F` [RIMEGEPANT], for which the “Growth Rate” value in the series on HEK-293T (setting [10]) was 0.87; with HEK-293T (setting [1]), 0.99; with HEK-293T (setting [2]), 0.67; in the series on HEK-293T (setting [7]), 0.89; in the series with Fibroblast (setting [9]) it was 0.86; in the series with Fibroblast (setting [1]), -0.21. For the same compound, the “Growth Rate” value in the series on Fibroblast (setting [2]) was 0.05; in the series on Fibroblast (setting [3]), -0.05; in the series on Fibroblast (setting [4]), -0.02; with Fibroblast (setting [5]), 0.2; in the series with Fibroblast (setting [6]), 0.18; with Fibroblast (setting [7]), 0.1. Also, the “Growth Rate” value in the series with Fibroblast (setting [8]) is reported as -0.18; in the series on U2OS (setting [9]), -0.42; in the series on U2OS (setting [2]), 0.88; in the series on U2OS (setting [6]), 0.96; in the series with U2OS (setting [8]), 0.87.

In the case of `Nc1cnc(N2CCc3cc(S(=O)(=O)Nc4c(F)cc(Cl)cc4F)cc(N4CCCC4=O)c32)nc1` [TP-020n], the “Growth Rate” value in the series on HEK-293T (setting [9]) amounted to 0.54; in the series on HEK-293T (setting [10]), 0.76; in the series with HEK-293T (setting [1]), 0.61; in the series on HEK-293T (setting [3]), 0.37; in the series with HEK-293T (setting [4]) it was 0.71; in the series with HEK-293T (setting [5]), 0.61. For the same compound, the “Growth Rate” value is listed as 0.9 with HEK-293T (setting [6]); 0.74 in the series with HEK-293T (setting [7]); 0.77 in the series with HEK-293T (setting [8]); 0.01 in the series with Fibroblast (setting [9]); -0.22 in the series with Fibroblast (setting [10]); 0.92 in the series on Fibroblast (setting [7]). The “Growth Rate” value was -0.04 in the series with U2OS (setting [9]); 0.53 in the series on U2OS (setting [1]); 0.72 in the series with U2OS (setting [3]); 0.65 in the series on U2OS (setting [5]); 0.66 with U2OS (setting [7]).

As to `COc1ccc2[nH]cc(CCNC(C)=O)c2c1` [MELATONIN], the “Growth Rate” value in the series with HEK-293T (setting [9]) is 0.52; in the series on HEK-293T (setting [10]), 0.8; in the series with HEK-293T (setting [1]), 0.93; with HEK-293T (setting [7]), 0.94; with Fibroblast (setting [9]), 0.91; in the series on Fibroblast (setting [10]), 0.06. The entries for the “Growth Rate” value in the series with U2OS (setting [10]), in the series on U2OS (setting [6]) and in the series on U2OS (setting [8]) were 0.55, 0.85 and 0.97, respectively.

`CN(C)[C@H]1CN(C2CCc3cccc(F)c32)C[C@@H]1c1ccc(N2CCN(S(C)(=O)=O)CC2)cc1` (stereo partly specified): the “Growth Rate” value in the series with HEK-293T (setting [2]) is reported as 0.35; in the series on HEK-293T (setting [4]), 0.71; in the series with HEK-293T (setting [6]), 0.89; in the series on HEK-293T (setting [8]) it was 0.8; in the series with Fibroblast (setting [2]) it was 0.88; in the series on Fibroblast (setting [5]) it was 0.68. Besides, the “Growth Rate” value is listed as 0.75 with Fibroblast (setting [7]); -0.44 with U2OS (setting [9]); -0.68 in the series on U2OS (setting [10]); 0.58 in the series on U2OS (setting [1]); 0.61 in the series on U2OS (setting [2]); 0.63 in the series on U2OS (setting [3]). Moreover, the “Growth Rate” value with U2OS (setting [4]) is recorded as 0.83; with U2OS (setting [5]), 0.87; in the series with U2OS (setting [6]), 0.9; with U2OS (setting [7]), 0.97; in the series with U2OS (setting [8]) it was 0.98.

For the compound `O=c1ccc2ccc(OCCCCN3CCN(c4cccc5sccc45)CC3)cc2[nH]1` [BREXPIPRAZOLE], the “Growth Rate” value is -0.63 in the series on HEK-293T (setting [1]); -0.43 in the series with HEK-293T (setting [3]); -0.32 with HEK-293T (setting [5]); -0.26 in the series on HEK-293T (setting [7]); -0.55 in the series on Fibroblast (setting [1]); 0.52 with Fibroblast (setting [2]). The “Growth Rate” value is 0.1 with Fibroblast (setting [3]); 0.53 in the series with Fibroblast (setting [4]); 0.08 in the series with Fibroblast (setting [5]); 0.81 in the series on Fibroblast (setting [6]); 0.3 in the series on Fibroblast (setting [7]); 0.76 in the series on Fibroblast (setting [8]). The “Growth Rate” value in the series with U2OS (setting [9]) is 0.42; in the series on U2OS (setting [10]), -0.19; in the series with U2OS (setting [1]), 0.98.

Consider `O=C1NC(=O)C(c2ccccc2[N+](=O)[O-])=C1Nc1ccc(O)c(Cl)c1`, for which the “Growth Rate” value with HEK-293T (setting [9]) is 0.17; with HEK-293T (setting [10]) it was 0.13; in the series with Fibroblast (setting [9]), -0.16; in the series with Fibroblast (setting [10]), 0.11; in the series on U2OS (setting [9]) it was 0.02; in the series with U2OS (setting [10]), -1. For the same compound, the “Growth Rate” value in the series with U2OS (setting [3]) stood at 0.95; with U2OS (setting [7]), 0.84.

In the case of `Br.Oc1cc2c(cc1O)C(c1ccccc1)CNCC2` (stereo unspecified), the “Growth Rate” value in the series with HEK-293T (setting [9]) is listed as 0.99; with HEK-293T (setting [10]), 0.61; with HEK-293T (setting [1]), 0.78; in the series with HEK-293T (setting [2]), -0.1; with HEK-293T (setting [3]), 0.62; in the series on HEK-293T (setting [4]), 0.43. Besides, the “Growth Rate” value in the series on HEK-293T (setting [5]) is reported as 0.92; in the series on HEK-293T (setting [6]), 0.37; in the series on HEK-293T (setting [8]), 0.67; in the series with Fibroblast (setting [9]), 0.09; in the series with Fibroblast (setting [10]), -0.21; in the series on U2OS (setting [1]), 0.49. The “Growth Rate” value in the series on U2OS (setting [2]) is listed as 1; with U2OS (setting [3]) it was 0.47; in the series with U2OS (setting [5]), 0.55; in the series on U2OS (setting [6]), 0.99; in the series on U2OS (setting [7]), 0.98.

With `C[C@H](N)Cn1ccc2cc(F)c(Cl)cc21.O=C(O)/C=C/C(=O)O`, the “Growth Rate” value in the series on HEK-293T (setting [1]) was 0.52; with HEK-293T (setting [3]), 0.55; in the series on HEK-293T (setting [5]), 0.67; with HEK-293T (setting [7]) it was 0.66; with Fibroblast (setting [1]) it was 0.43; in the series on Fibroblast (setting [2]), 0.72. The “Growth Rate” value in the series on Fibroblast (setting [3]) was determined as 0.49; in the series with Fibroblast (setting [4]), 0.81; in the series with Fibroblast (setting [5]) it was 0.6; in the series on Fibroblast (setting [6]), 0.9; in the series with Fibroblast (setting [7]), 0.6; in the series on Fibroblast (setting [8]), 0.79. The “Growth Rate” value with U2OS (setting [9]) is recorded as -0.71; with U2OS (setting [10]) it was 0.24; with U2OS (setting [1]) it was 0.36; with U2OS (setting [2]) it was 0.68; in the series on U2OS (setting [3]), 0.57; with U2OS (setting [5]) it was 0.92. Moreover, the “Growth Rate” value in the series with U2OS (setting [7]) amounted to 0.91.

As for `C[S+](C)[O-]` [DIMETHYL SULFOXIDE], the “Growth Rate” value is on record as 0.62 with HEK-293T (setting [9]); 0.67 with HEK-293T (setting [10]); 0.93 in the series with HEK-293T (setting [5]); 0.18 in the series with Fibroblast (setting [10]); 0.29 in the series on Fibroblast (setting [1]); 0.81 in the series with Fibroblast (setting [3]). Moreover, the “Growth Rate” value with Fibroblast (setting [4]) was 0.86; with Fibroblast (setting [8]), 0.93; in the series on U2OS (setting [9]), 0.71; in the series with U2OS (setting [10]), -0.56; in the series with U2OS (setting [1]), 0.96; in the series on U2OS (setting [2]), 0.93. In addition, the figures for the “Growth Rate” value with U2OS (setting [5]), in the series on U2OS (setting [6]) and with U2OS (setting [7]) were 0.94, 0.98 and 0.98, respectively.
